According to PubChem BioAssay AID2400 (Broad Institute, 2010):
Values joined by “and” are separate entries in the source; they are usually repeats but may differ in a detail not shown here. Identical values can stand only once. Active and inactive are the calls of the source.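 The calls were made as follows: active = fitted EC50 at or below ten times the top tested concentration; inconclusive = flat fit with activity between 30% and 70%, or an unusable fit; inactive = EC50 beyond ten times the top tested concentration.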

System: S. cerevisiae GRE-beta-galactosidase reporter, luminescence, 75 min
Experiment: loss of DOC-induced GRE-beta-galactosidase reporter signal, dose response, Hsp90 inhibitor project, S. cerevisiae, luminescence (AID 2400)

Row | Compound | EC50
1 | NC(=NCCCCCCN=C(N)/N=C(\N)Nc1ccc(Cl)cc1)/N=C(\N)Nc1ccc(Cl)cc1 | > 16 µM (inactive) and > 15 µM (inactive)
2 | CC1CCC(C(C)C)C(OC(=O)Cn2c(-c3ccc(Br)cc3)[n+](C)c3ccccc32)C1 (configuration not stated) | > 16 µM (inactive)
